Reference: patent US5028733A, “Prostaglandins” (National Research Development Corporation, priority 1980, dated 1991)
Several values for one entry are separate records, joined by “and”; a condition that tells them apart may be missing. Identical values can stand only once.

Columns and labels:
[1] = test system: platelet aggregation (collagen); experiment: In vivo inhibition of platelet aggregation in guinea pigs (collagen); set-up: species or system male albino guinea pig
Method: (§1) The technique employed in this test was basically that of Smith and Freuler, Bibl. anat., 1973, 12, 229-234, which utilises the Technicon Autocounter and provides a completely automated system for counting platelets and cells. Blood is continuously sampled from a suitable artery and to avoid the use of an anticoagulant, a double cannula is used which enables 3.8%, w/v aqueous trisodium citrate to be pumped to the tip of the cannula and the citrated blood then to be removed at 0.1 ml/minute and diluted in the manifold where the red cells are lysed with 1% w/v ammonium oxalate/0.002% w/v saponin solution. The platelets are then counted optically and the count continuously recorded on precalibrated chart paper.
(§2) In three experiments, each conducted on one male albino guinea pig ([…]) anaesthetised with a mixture of allyl barbituric acid and urethane, the guinea pig was given intravenously a dose of 50 μg/kg of collagen, followed 15 minutes later by 0.35 μg/kg of 11,9-(epoxymethane) PGH2 to give two reliable platelet aggregation responses for each material. After a further period of 10 minutes, the guinea pig was treated intravenously with a dose of 1 mg/kg of 5-endo-(6'-carboxyhex-2'Z-enyl)-6-exo{1'-[N-(phenylthiocarbamoyl)hydrazono]-ethyl}-bicyclo [2,2,1] heptane prepared as described in Example 2. Commencing 5 minutes after the administration of the bicyclo [2,2,1] heptane, the alternate treatments at 15 minute intervals with collagen and 11,9-(epoxymethano) PGH2 were repeated, the second treatment with the latter compound being followed after 15 minutes by a final treatment with collagen. (In the first experiment, only, the last administration of each compound was omitted).

[2] = test system: rabbit aorta; experiment: Block of the contractile action of noradrenaline in the rabbit aorta strip test; format: cell-based; conditions: in words
[3] = test system: platelet aggregation (collagen); experiment: In vivo inhibition of platelet aggregation in rats (collagen); set-up: species or system male Sprague-Dawley rats; conditions: for Percentage Fall in platelet count on administering collagen, After, mean: mean of 6 rats, compound 1 mg/kg i.v.
Method: as §1
Each of a group of six male Sprague-Dawley rats anaesthetised with pentabarbitone was injected intravenously with 40 μg/kg of collagen followed, 15 minutes later, by 80 μg/kg of collagen, which gives a dose-dependent and reproducible fall in platelet count. Ten minutes after the second injection of collagen, the rats were treated intravenously with a dose of 1 mg/kg of 5-endo-(6'-carboxyhex-2'Z-enyl)-6-exo-{1'-[N-(phenylthiocarbamoyl)-hydrazono]ethyl}-bicyclo [2,2,1] heptane prepared as described in Example 2. At 5 and 20 minutes after the administration of this compound a further 40 μg/kg and 80 μg/kg of collagen, respectively, were administered. The levels of platelet aggregation resulting from the administration of the collagen before and after the administration of the bicyclo [2,2,1] heptane were recorded continuously as indicated above.

[4] = molecular target: T1, human platelets (Homo sapiens, UniProt P21731); experiment: Human platelet system, antagonism of aggregation by 11,9-(epoxymethano) PGH2 (affinity constant KB); format: cell-based; conditions: in words
T1 construct: Platelet-rich plasma is obtained from fresh, citrated human blood; endogenous in cells; host or cells: human platelets in platelet-rich plasma
T1 sequence (P21731 1-343): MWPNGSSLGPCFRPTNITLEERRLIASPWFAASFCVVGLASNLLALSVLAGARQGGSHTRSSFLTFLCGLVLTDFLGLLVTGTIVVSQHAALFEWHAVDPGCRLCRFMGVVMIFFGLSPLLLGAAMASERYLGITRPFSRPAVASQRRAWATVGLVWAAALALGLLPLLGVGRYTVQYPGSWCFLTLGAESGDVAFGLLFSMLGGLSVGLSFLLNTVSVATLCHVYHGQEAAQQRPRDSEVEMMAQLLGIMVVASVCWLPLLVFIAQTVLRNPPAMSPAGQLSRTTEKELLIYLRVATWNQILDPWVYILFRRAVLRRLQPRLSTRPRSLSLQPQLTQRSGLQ
Method: Platelet-rich plasma is obtained from fresh, citrated human blood. Addition of the 11,9-(epoxymethano) PGH2 (1×10^-7 to 5×10^-7 M) causes immediate aggregation recorded as an increase in light transmission (600 nm). In a second experiment the individual compounds are added five minutes previous to the addition of the PGH2 analogue. The dose of the PGH2 analogue added is then increased to a level which gives a similar response to that obtained in the absence of antagonist. The affinity constant, KB, for the compound is calculated according to the Gaddum - Schild Equation (based on Law of Mass Action).
(§3) [B]=molar concentration of compound

[5] = test system: platelet aggregation (11,9-(epoxymethano) PGH2); experiment: In vivo inhibition of platelet aggregation in guinea pigs (11,9-(epoxymethano) PGH2); set-up: species or system male albino guinea pig
Method: as §1, with “paper. In three experiments, each conducted on one male albino guinea pig ([…]) anaesthetised with a mixture of allyl barbituric acid and urethane, the guinea pig was given intravenously a dose of 50 μg/kg of collagen, followed 15 minutes later by 0.35 μg/kg of 11,9-(epoxymethane) PGH2 to give two reliable platelet aggregation responses for each material. […] (In the first experiment, only, the last administration of each compound was omitted).” for “paper.”

[6] = test system: platelet; experiment: Block of the aggregatory action of arachidonic acid on platelets; format: cell-based; conditions: in words
[7] = test system: bronchoconstriction (collagen); experiment: Modified Konzett-Rossler test, inhibition of bronchoconstriction by collagen; format: in vivo, guinea pig; conditions: 5 min after compound; 1 mg/kg i.v.; insufflation pressure
Method: as §2
(§4) The same three experiments on guinea pigs described under 1(b) are used to give a measure in a modified Konzett-Rossler test of the inhibition produced by 5-endo-(6'-carboxyhex-2'Z-enyl)-6-exo{1'[N-(phenylthiocarbamoyl)-hydrazono]ethyl}-bicyclo [2,2,1] heptane, prepared as described in Example 2, of the bronchoconstriction resulting from administration of the collagen and the PGH2 derivative. […]

[8] = test system: bronchoconstriction (PGH2 derivative); experiment: Modified Konzett-Rossler test, inhibition of bronchoconstriction by 11,9-(epoxymethano) PGH2; format: in vivo, guinea pig; conditions: 5 min after compound; 1 mg/kg i.v.; insufflation pressure
Method: as §2, §4

[9] = test system: rabbit aorta; experiment: Rabbit aorta strip, antagonism of contraction by 11,9-(epoxymethano) PGH2 (affinity constant KB); format: cell-based; conditions: in words
Method: Spiral strips of thoracic aorta are suspended in Kreb's-Henseleit solution and aerated with 95% O2 /5% CO2 at 37° C. Tension changes are recorded with a Glass FTO3 force transducer. Initially, cumulative dose response curves to 11,9-(epoxymethano) PGH2 (2×10^-9, 1×10^-8, 5×10^-8 and 2.5×10^-7 M) are obtained. In a second experiment the individual compounds are added 30 minutes previous to the addition of the series of agonist doses. In the case of each compound, the affinity constant, KB, for the compound is calculated according to the Gaddum - Schild Equation (based on Law of Mass Action).
as §3

[10] = collagen 50 μg/kg, average of experiments
[11] = PGH2 deriv. 0.35 μg/kg, average of experiments

antagonist in the platelet test [4]: antagonists in the platelet test
Compound: CC(=NNC(=S)Nc1ccccc1)[C@H]1[C@@H]2CC[C@@H](C2)[C@@H]1C/C=C\CCCC(=O)O (relative stereo) [Example 2, 5-endo(6'-Carboxyhex-2'Z-enyl)-6-exo-{1'-[N-(phenylthiocarbamoyl)-hydrazono]-ethyl}-bicyclo [2,2,1] heptane]
Percentage Inhibition of platelet aggregation, 5 min ([1]; collagen 50 μg/kg, 5 min after 1 mg/kg i.v. compound, single animal): 73.6 Percentage and 64.5 Percentage and 68.3 Percentage | Percentage Inhibition of platelet aggregation, 35 min ([1]; collagen 50 μg/kg, 35 min after 1 mg/kg i.v. compound, single animal): 67.3 Percentage and 64.4 Percentage and 56.1 Percentage | Percentage Inhibition of platelet aggregation, 65 min ([1]; collagen 50 μg/kg, 65 min after 1 mg/kg i.v. compound, single animal): 56.1 Percentage and 51.5 Percentage | Percentage Inhibition of platelet aggregation, 5 min, Average [1, 10]: 68.8 Percentage | Percentage Inhibition of platelet aggregation, 35 min, Average [1, 10]: 62.6 Percentage | Percentage Inhibition of platelet aggregation, 65 min, Average [1, 10]: 53.8 Percentage | platelet aggregation produced by collagen, in words ([1]; guinea pig, 1 mg/kg i.v.): caused an inhibition of the platelet aggregation | contractile action of noradrenaline (α-adrenoceptors) [2]: do not block the contractile action of noradrenaline | average response to collagen ([3]; 40 μg/kg collagen, before vs after compound 1 mg/kg i.v.): significantly reduced | P, one tailed paired t-test, reduction of average response ([3]; 40 μg/kg collagen, t=2.25 (5Df)): < 0.05 | Percentage Fall in platelet count on administering collagen, After, individual rat ([3]; collagen 40 μg/kg i.v., 5 min after 1 mg/kg i.v. compound): 14.0 Percentage and 13.3 Percentage and 14.6 Percentage and 25.0 Percentage and 18.5 Percentage and 19.4 Percentage | Percentage Fall in platelet count on administering collagen, After, mean ([3]; collagen 40 μg/kg): 17.47 Percentage | Percentage Fall in platelet count on administering collagen, After, individual rat ([3]; collagen 80 μg/kg i.v., 20 min after 1 mg/kg i.v. compound): 18.3 Percentage and 27.1 Percentage and 28.4 Percentage and 34.4 Percentage and 34.5 Percentage and 28.2 Percentage | Percentage Fall in platelet count on administering collagen, After, mean ([3]; collagen 80 μg/kg): 28.5 Percentage | Percentage Inhibition of platelet aggregation, 20 min ([5]; PGH2 deriv. 0.35 μg/kg, 20 min after 1 mg/kg i.v. compound, single animal): 75.7 Percentage and 85.2 Percentage and 83.7 Percentage | Percentage Inhibition of platelet aggregation, 50 min ([5]; PGH2 deriv. 0.35 μg/kg, 50 min after 1 mg/kg i.v. compound, single animal): 65.5 Percentage and 64.6 Percentage | Percentage Inhibition of platelet aggregation, 20 min, Average [5, 11]: 81.5 Percentage | Percentage Inhibition of platelet aggregation, 50 min, Average [5, 11]: 65.1 Percentage | platelet aggregation produced by 11,9-(epoxymethano) PGH2, in words ([5]; guinea pig, 1 mg/kg i.v.): caused an inhibition of the platelet aggregation | aggregatory action of arachidonic acid [6]: block the aggregatory action of arachidonic acid | inhibition of the bronchoconstricting effect of collagen [7]: complete inhibition | inhibition of the bronchoconstricting effect of the PGH2 derivative [8]: complete inhibition | antagonist in the rabbit aorta strip test [9]: pure antagonists in the rabbit aorta strip test
